Test results reported in the supplement of paper PMC9262897, “Low-cost anti-mycobacterial drug discovery using engineered E. coli” (Nature Communications, 2022).

Assays:
[1] = system: Efflux+; assay: growth (OD600 after 24 h); higher = more growth
Procedure: (§1)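 E. coli BW25113 ΔaraC (Efflux+) or efflux-pump deletion strains (ΔtolC ΔentC, ΔemrE, ΔmdtI, ΔyeeO, ΔmdtK, ΔmdtM) diluted 1:100 in M9-based medium with a drug dilution series. Growth is read as OD600 after 24 h; 3 biological replicates.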

[2] = system: ∆emrE; assay: growth (OD600 after 24 h); higher = more growth
Procedure: as §1

[3] = system: ∆mdtI; assay: growth (OD600 after 24 h); higher = more growth
Procedure: as §1

[4] = system: ∆mdtK; assay: growth (OD600 after 24 h); higher = more growth
Procedure: as §1

[5] = system: ∆mdtM; assay: growth (OD600 after 24 h); higher = more growth
Procedure: as §1

[6] = system: ∆tolC ∆entC; assay: growth (OD600 after 24 h); higher = more growth
Procedure: as §1

[7] = system: ∆yeeO; assay: growth (OD600 after 24 h); higher = more growth
Procedure: as §1

[8] = system: E. coli TESEC Mtb Alr; assay: growth (OD600 after 10 h, mean); higher = more growth;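 also: E. coli lacking its native Alr, complemented by codon-optimized Mtb Alr under a feedback-controlled arabinose-inducible plasmid circuit, grown in defined medium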
Procedure: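 TESEC Mtb Alr E. coli grown in a two-dimensional dilution series of drug (µM) and arabinose (12 to 1e8 nM). Growth is read as OD600 after 10 h; values are means of 3 biological replicates.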

CCOC(=O)[C@H](CCc1ccccc1)N[C@H]1CCc2ccccc2N(CC(=O)O)C1=O [Benazepril]
growth
Conditions	[1]	[2]	[3]	[4]	[5]	[6]	[7]
drug 62.5 µM	1.02	1.18	0.992	0.937	0.822	0.756	0.887
drug 125 µM	0.974	1.16	0.978	1.04	0.832	0.791	0.894
drug 250 µM	0.962	1.09	0.979	1	0.807	0.8136	0.895
drug 500 µM	0.969	1.08	0.983	1.01	0.827	0.8286	0.901
drug 1000 µM	0.977	1.065	1	0.974	0.835	0.0672	0.91
drug 2000 µM	1	1.14	1.009	0.856	0.833	0.0535	0.882

growth, [8]
Conditions	drug 15.62 µM	drug 31.25 µM	drug 62.5 µM	drug 125 µM	drug 250 µM
arabinose 12 nM	0.354	0.343	0.321	0.279	–
arabinose 24 nM	0.338	0.339	0.326	0.285	–
arabinose 48 nM	0.334	0.332	0.33	0.275	–
arabinose 95 nM	0.343	0.334	0.309	0.279	–
arabinose 191 nM	0.341	0.34	0.308	0.275	–
arabinose 381 nM	0.338	0.325	0.309	0.274	–
arabinose 763 nM	0.337	0.322	0.304	0.278	–
arabinose 1526 nM	0.333	0.322	0.305	0.275	0.185
arabinose 3052 nM	0.338	0.326	0.308	0.279	0.183
arabinose 6104 nM	0.337	0.334	0.303	0.277	0.187
arabinose 12207 nM	0.353	0.332	0.312	0.288	0.186
arabinose 24414 nM	0.352	0.348	0.309	0.297	–
arabinose 48828 nM	0.367	0.393	0.396	0.359	–
arabinose 97656 nM	0.451	0.462	0.394	0.376	–
arabinose 195312 nM	0.429	0.42	0.387	0.327	–
arabinose 390625 nM	0.344	0.35	0.346	0.289	–
arabinose 781250 nM	0.311	0.307	0.306	0.281	–
arabinose 1562500 nM	0.295	0.287	0.286	0.269	–
arabinose 3125000 nM	0.274	0.267	0.268	0.255	–
arabinose 6250000 nM	0.267	0.273	0.273	0.256	–
arabinose 12500000 nM	0.263	0.266	0.256	0.256	–
arabinose 25000000 nM	0.259	0.258	0.252	0.244	–
arabinose 50000000 nM	0.246	0.245	0.244	0.243	–
arabinose 100000000 nM	0.239	0.231	0.23	0.227	–
